Drawing on the NIST ThermoML archive (doi:10.1021/je300742t), this text covers viscosity, speed of sound and mass density for two compounds.

The conditions of this data set: 298.15 K, 101.33 kPa, Liquid; for viscosity: Capillary tube (Ostwald / Ubbelohde) method; for speed of sound: Sing-around technique in a fixed-path interferometer; for mass density: Vibrating tube method.

± gives the expanded uncertainty stated by the source.

As to `NCCO` [2-aminoethan-1-ol], the viscosity came out at 18.74 ± 0.13 mPa·s, the speed of sound is recorded as 1719.2 ± 1.7 m/s and the mass density turned out to be 1011.98 ± 0.3 kg/m3.

For the compound `CN1CCCC1=O` [N-methylpyrrolidone], the viscosity is recorded as 1.681 ± 0.013 mPa·s, the speed of sound was found to be 1545.2 ± 1.7 m/s and the mass density is reported as 1028.3 ± 0.31 kg/m3.
